Source: paper PMC4738305, “Metabolism and Disposition of Aditoprim in Swine, Broilers, Carp and Rats” (Scientific Reports, 2016)
Like-named read-outs stand apart in the source and are kept apart here.

Columns and labels:
[1] = Concentration and elimination of ADP and its metabolites in liver, kidney, muscle, fat/skin after oral ^3H-ADP for 7 d; type: in vivo, carp; conditions: for concentration at 0.25 d / concentration at 1 d / concentration at 3 d / concentration at 7 d / concentration at 14 d / concentration at 21 d: carp, oral; for half-life: po
Method: (§1) A total of 36 animals from each species (swine n = 24) were randomly assigned to six equal treatment groups and administered a single daily dose of ^3 H-ADP at 5 mg/kg b. w. (0.1 Ci/g) through oral gavage for 7 consecutive days. All the animals were housed on the basis of their group in the cages or aquaria throughout the whole study period. A group of animals was slaughtered through exsanguination under diethyl ether inhalation of anesthesia in the period of 6 h, 1, 3, 7, 14, and 21 d after the administration. The blood samples were immediately collected into the heparinized tubes and was centrifuged at 1920 × g at 4 °C for 10 min to obtain the plasma. The tissues from the heart, liver, spleen, lung, kidney, craw (broilers), stomach, intestine, fat, skin, muscle, thymus, pancreas, bile, bladder, hair (scale for carp), genital gland, adrenal glands, swim bladder (carp), brain, lymph, and bursa (broilers) were carefully excised and collected. The tissues were thoroughly rinsed with the deionized water to remove the residuary blood, blotted to dryness, and finally to perform the homogenization. In order to avoid cross-contamination the dissecting instruments were washed during the tissue procurements. The blank tissues were collected in order to provide control matrices. The total radioactivity levels in each sample were determined through LSC. The samples extracted from the plasma, bile, and tissues of the liver, kidney, muscle, and fat/skin were analyzed through LC/MS-IT-TOF and v. ARC radiometric detection for metabolite profiling. The blank samples were used as control to determine the background radioactivity or the endogenous nondrug-related ions observed within respective matrices or their extracts.
(§2) The feces and tissues (2 g) were diluted with a mixture of methanol and chloroform (1:3, v:v; 2 mL/g homogenate). This procedure was carried out in a fume hood for the safety aspects. The pH value was adjusted to 9.0 with NH4OH. The mixture was vortexed and sonicated for 5 min and 10 min, respectively, and finally the samples were centrifuged at 7690 × g for 10 min. The supernatant was aspirated and then transferred into a new centrifuge tube. The obtained pellet was again subjected to the same process of vortex, ultrasonication, extraction, and centrifugation. The combined supernatant was concentrated under a stream of nitrogen in a water bath at 40 °C. The residue was reconstituted with 0.3 mL of methanol–water (1:9, v:v) before the injection into the LC-v. ARC/MS-IT-TOF system for analysis.
(§3) ADP and its metabolites in the prepared samples were determined with a v. ARC radiometric detector and a hybrid IT/TOF mass spectrometer connected to the HPLC system (Shimadzu Corp., Kyoto, Japan). The LC system was equipped with a solvent delivery pump (LC-20AD), an auto-sampler (SIL-20AC), a degasser (DGU-20 A 3), a photodiode array detector (SPD-M20A), a communication base module (CBM-20 A), and a column oven (CTO-20AC). The chromatographic separation was achieved by using an Agilent extend-C18 column (2.1 mm × 150 mm, 5 μm) with a gradient mobile phase of A (0.01% ammonia and 5 mM ammonium acetate in water) and B (methanol) at a flow rate of 0.2 mL/min. The column temperature was maintained at 35 °C. Various HPLC methods were performed because of the large number of different metabolites to be analyzed. For the porcine sample, method 1 started at 5% B and increased to 20% B over 35 min, then to 55% B by 60 min, followed by re-equilibration for another 10 min. For the remaining samples, method 2 started at 10% B and increased to 60% B over 30 min, subsequently was maintained at 60% B for an additional 10 min, and then changed to 90% B over 2 min and maintained for 2 min. Afterwards, a re-equilibration step (decreased to 10% B over 1 min and maintained at 10% B for additional 9 min) was followed. For each matrix, more than 98% of the radioactivity injected into the column was eluted during the running time of the gradient program. […]

[2] = as above; type: in vivo, broilers; conditions: for concentration at 0.25 d / concentration at 1 d / concentration at 3 d / concentration at 7 d / concentration at 14 d: oral; for half-life: po
Method: as §1, §2, §3

[3] = as above; type: in vivo, rats; conditions: for half-life: po; for concentration at 0.25 d / concentration at 1 d / concentration at 3 d / concentration at 7 d / concentration at 14 d: oral
Method: as §1, §2, §3

[4] = broiler chicken, kidney, 5 mg/kg b.w.
[5] = broilers, muscle, 5 mg/kg b. w.

share of the sample radioactivity in the detected tissues ([1]; carp liver, kidney, muscle, skin, over the sampling times): more than 42%
concentration at 0.25 d ([1]; kidney, 5 mg/kg b.w.): 38900 ± 8000 ng/g
concentration at 1 d ([1]; kidney, 5 mg/kg b.w.): 6470 ± 1250 ng/g
concentration at 3 d ([1]; kidney, 5 mg/kg b.w.): 3010 ± 550 ng/g
concentration at 7 d ([1]; kidney, 5 mg/kg b.w.): 1190 ± 80 ng/g
concentration at 14 d ([1]; kidney, 5 mg/kg b.w.): 680 ± 80 ng/g
concentration at 21 d ([1]; kidney, 5 mg/kg b.w.): 90 ± 20 ng/g
concentration at 0.25 d ([1]; liver, 5 mg/kg b. w.): 13200 ± 3700 ng/g
concentration at 1 d ([1]; liver, 5 mg/kg b. w.): 5750 ± 950 ng/g
concentration at 3 d ([1]; liver, 5 mg/kg b. w.): 2370 ± 470 ng/g
concentration at 7 d ([1]; liver, 5 mg/kg b. w.): 390 ± 100 ng/g
concentration at 14 d ([1]; liver, 5 mg/kg b. w.): 260 ± 40 ng/g
concentration at 21 d ([1]; liver, 5 mg/kg b. w.): 90 ± 10 ng/g
concentration at 0.25 d ([1]; muscle, 5 mg/kg b.w.): 1960 ± 530 ng/g
concentration at 1 d ([1]; muscle, 5 mg/kg b.w.): 1690 ± 410 ng/g
concentration at 3 d ([1]; muscle, 5 mg/kg b.w.): 870 ± 180 ng/g
concentration at 7 d ([1]; muscle, 5 mg/kg b.w.): 410 ± 90 ng/g
concentration at 14 d ([1]; muscle, 5 mg/kg b.w.): 60 ± 10 ng/g
concentration at 0.25 d ([1]; skin, 5 mg/kg b. w.): 3040 ± 520 ng/g
concentration at 1 d ([1]; skin, 5 mg/kg b. w.): 2320 ± 670 ng/g
concentration at 3 d ([1]; skin, 5 mg/kg b. w.): 1330 ± 150 ng/g
concentration at 7 d ([1]; skin, 5 mg/kg b. w.): 800 ± 160 ng/g
concentration at 14 d ([1]; skin, 5 mg/kg b. w.): 60 ± 10 ng/g
half-life ([1]; carp kidney, after 5 mg/kg b. w. for 7 days, read-out: t1/2 of the individual compound (converted)): 89.3 h
half-life ([1]; carp liver, after 5 mg/kg b. w. for 7 days, read-out: t1/2 of the individual compound (converted)): 159 h
half-life ([1]; carp muscle, after 5 mg/kg b. w. for 7 days, read-out: t1/2 of the individual compound (converted)): 68.9 h
half-life ([1]; carp skin, after 5 mg/kg b. w. for 7 days, read-out: t1/2 of the individual compound (converted)): 57.6 h
half-life ([1]; tissues (liver, kidney, muscle, fat/skin), 5 mg/kg, carp tissues, read-out: t1/2 of the individual compound, range over tissues): 57.6 to 159 h
concentration at 0.25 d [2, 4]: 15400 ± 2120 ng/g
concentration at 1 d [2, 4]: 7240 ± 1020 ng/g
concentration at 3 d [2, 4]: 1150 ± 440 ng/g
concentration at 7 d [2, 4]: 170 ± 20 ng/g
concentration at 14 d [2, 4]: 40 ± 10 ng/g
concentration at 0.25 d ([2]; broiler chicken, muscle, 5 mg/kg b.w.): 530 ± 220 ng/g
share of the sample radioactivity in the detected tissues ([2]; broilers liver, kidney, muscle, fat, over the sampling times): more than 42%
concentration at 0.25 d ([2]; broilers, fat, 5 mg/kg b. w.): 780 ± 240 ng/g
concentration at 1 d ([2]; broilers, fat, 5 mg/kg b. w.): 180 ± 60 ng/g
concentration at 3 d ([2]; broilers, fat, 5 mg/kg b. w.): 140 ± 20 ng/g
concentration at 7 d ([2]; broilers, fat, 5 mg/kg b. w.): 60 ± 10 ng/g
concentration at 0.25 d ([2]; broilers, liver, 5 mg/kg b. w.): 8040 ± 1400 ng/g
concentration at 1 d ([2]; broilers, liver, 5 mg/kg b. w.): 1860 ± 580 ng/g
concentration at 3 d ([2]; broilers, liver, 5 mg/kg b. w.): 1150 ± 440 ng/g
concentration at 7 d ([2]; broilers, liver, 5 mg/kg b. w.): 580 ± 80 ng/g
concentration at 14 d ([2]; broilers, liver, 5 mg/kg b. w.): 130 ± 50 ng/g
concentration at 1 d [2, 5]: 330 ± 100 ng/g
concentration at 3 d [2, 5]: 220 ± 30 ng/g
concentration at 7 d [2, 5]: 30 ng/g
half-life ([2]; broiler fat, after 5 mg/kg b. w. for 7 days, read-out: t1/2 of the individual compound (converted)): 71.5 h
half-life ([2]; broiler kidney, after 5 mg/kg b. w. for 7 days, read-out: t1/2 of the individual compound (converted)): 55.4 h
half-life ([2]; broiler liver, after 5 mg/kg b. w. for 7 days, read-out: t1/2 of the individual compound (converted)): 81.6 h
half-life ([2]; broiler muscle, after 5 mg/kg b. w. for 7 days, read-out: t1/2 of the individual compound (converted)): 40.1 h
half-life ([2]; tissues (liver, kidney, muscle, fat/skin), 5 mg/kg, broilers tissues, read-out: t1/2 of the individual compound, range over tissues): 40.1 to 81.6 h
half-life ([3]; rat fat, after 5 mg/kg b. w. for 7 days, read-out: t1/2 of the individual compound (converted)): 62.2 h
half-life ([3]; rat kidney, after 5 mg/kg b. w. for 7 days, read-out: t1/2 of the individual compound (converted)): 76.8 h
half-life ([3]; rat liver, after 5 mg/kg b. w. for 7 days, read-out: t1/2 of the individual compound (converted)): 100 h
half-life ([3]; rat muscle, after 5 mg/kg b. w. for 7 days, read-out: t1/2 of the individual compound (converted)): 70.8 h
concentration at 0.25 d ([3]; rat, fat, 5 mg/kg b. w.): 290 ± 100 ng/g
concentration at 1 d ([3]; rat, fat, 5 mg/kg b. w.): 150 ± 30 ng/g
concentration at 3 d ([3]; rat, fat, 5 mg/kg b. w.): 80 ± 10 ng/g
concentration at 7 d ([3]; rat, fat, 5 mg/kg b. w.): 30 ng/g
concentration at 0.25 d ([3]; rat, kidney, 5 mg/kg b.w.): 3800 ± 1550 ng/g
concentration at 1 d ([3]; rat, kidney, 5 mg/kg b.w.): 1130 ± 430 ng/g
concentration at 3 d ([3]; rat, kidney, 5 mg/kg b.w.): 590 ± 110 ng/g
concentration at 7 d ([3]; rat, kidney, 5 mg/kg b.w.): 350 ± 80 ng/g
concentration at 14 d ([3]; rat, kidney, 5 mg/kg b.w.): 60 ± 10 ng/g
concentration at 0.25 d ([3]; rat, liver, 5 mg/kg b. w.): 6140 ± 1890 ng/g
concentration at 1 d ([3]; rat, liver, 5 mg/kg b. w.): 2830 ± 520 ng/g
concentration at 3 d ([3]; rat, liver, 5 mg/kg b. w.): 1020 ± 270 ng/g
concentration at 7 d ([3]; rat, liver, 5 mg/kg b. w.): 560 ± 120 ng/g
concentration at 14 d ([3]; rat, liver, 5 mg/kg b. w.): 170 ± 30 ng/g
concentration at 0.25 d ([3]; rat, muscle, 5 mg/kg b.w.): 1020 ± 480 ng/g
concentration at 1 d ([3]; rat, muscle, 5 mg/kg b.w.): 700 ± 210 ng/g
concentration at 3 d ([3]; rat, muscle, 5 mg/kg b.w.): 380 ± 90 ng/g
concentration at 7 d ([3]; rat, muscle, 5 mg/kg b.w.): 170 ± 40 ng/g
half-life ([3]; rat, tissues (liver, kidney, muscle, fat/skin), 5 mg/kg, rats tissues, read-out: t1/2 of the individual compound, range over tissues): 62.2 to 100 h
share of the sample radioactivity in the detected tissues ([3]; rats liver, kidney, muscle, fat, over the sampling times): more than 42%
Structure (SMILES): COc1cc(Cc2cnc(N)nc2N)cc(OC)c1N(C)C [A0, 2,4-Diamino-5-[4-(dimethylamino)-3,5-dimethoxybenzyl] pyrimidine]
